Values after ≈ are worked out from the molar mass of the structure shown.
Legend:
Aspergillus fumigatus = experiment: In vitro assay for antifungal activity; type: cell-based; settings: RPMI 1640, 1% DMSO, concentration at which 50% of the fungi were inhibited vs negative control, alamarblue; for MIC: Aspergillus fumigatus
Method: (§1) Fungal strains to be tested were inoculated onto Sabouraud dextrose agar, YM agar, and Potato dextrose agar and sufficiently cultured at 35° C. for two to three days. Individual single colonies of the yeast fungi selected out of the cultured strains were sufficiently suspended in 5 ml of 0.85% sterile physiological saline, followed by correction to adjust the absorbance thereof at 530 nm to 0.108. The suspensions were diluted serially by 1:50 and then 1:20 in RPMI 1640 media to prepare liquid inocula ranging in cell count from 1.0×10^3 to 5.0×10^3 CFU/ml.
(§2) Antifungal samples were prepared by diluting the compounds of the present inventions in RPMI 1640 media to serial concentrations ranging from 0.0625 to 32 μg/ml. As a vehicle, DMSO was contained in a final concentration of 1% (V/V) in the antifungal samples. 0.1 ml of each of the dilutions in series was added to equal volume of each of the fungal inocula.
(§3) Concentrations of the compounds at which 50% of the fungi were inhibited compared to the negative control were determined using the growth indicator alamarblue.

Aspergillus flavus = experiment: In vitro assay for antifungal activity; type: cell-based; settings: RPMI 1640, 1% DMSO, concentration at which 50% of the fungi were inhibited vs negative control, alamarblue; for MIC: Aspergillus flavus
Method: as §1, §2, §3

Candida albicans [1] = experiment: In vitro assay for antifungal activity; type: cell-based; settings: RPMI 1640, 1% DMSO, concentration at which 50% of the fungi were inhibited vs negative control, alamarblue, 24 hours; for MIC: Candida albicans
Method: as §1, §2, §3

Aspergillus terreus = experiment: In vitro assay for antifungal activity; type: cell-based; settings: RPMI 1640, 1% DMSO, concentration at which 50% of the fungi were inhibited vs negative control, alamarblue; for MIC: Aspergillus terreus
Method: as §1, §2, §3

Cryptococcus neoformans = experiment: In vitro assay for antifungal activity; type: cell-based; settings: RPMI 1640, 1% DMSO, concentration at which 50% of the fungi were inhibited vs negative control, alamarblue; for MIC: Cryptococcus neoformans
Method: as §1, §2, §3

Candida parapsilosis = experiment: In vitro assay for antifungal activity; type: cell-based; settings: RPMI 1640, 1% DMSO, concentration at which 50% of the fungi were inhibited vs negative control, alamarblue, 24 hours; for MIC: Lodderomyces parapsilosis
Method: as §1, §2, §3

Candida tropicalis = experiment: In vitro assay for antifungal activity; type: cell-based; settings: RPMI 1640, 1% DMSO, concentration at which 50% of the fungi were inhibited vs negative control, alamarblue, 24 hours; for MIC: Candida tropicalis
Method: as §1, §2, §3

Candida krusei = experiment: In vitro assay for antifungal activity; type: cell-based; settings: RPMI 1640, 1% DMSO, concentration at which 50% of the fungi were inhibited vs negative control, alamarblue, 24 hours; for MIC: Pichia kudriavzevii
Method: as §1, §2, §3

Candida glabrata = experiment: In vitro assay for antifungal activity; type: cell-based; settings: RPMI 1640, 1% DMSO, concentration at which 50% of the fungi were inhibited vs negative control, alamarblue, 24 hours; for MIC: Nakaseomyces glabratus
Method: as §1, §2, §3

[2] = Assay for acute toxicity in mice; type: in vivo; settings: oral administration, suspension in aqueous 0.5% methylcellulose, up to a dose of 2000 mg/kg, two weeks
Candida albicans [3] = experiment: In vivo assay for antifungal activity (systemic candidiasis); settings: male mice infected i.v. with Candida albicans; 20 mg/kg orally once a day for seven days; at 28 days after the infection
Method: Azole compounds synthesized in Examples were assayed for antifungal activity in vivo.
A suspension containing Candida albicans in a concentration ranging from 7×10^7 to 8×10^7 cfu/ml was intravenously injected at a dose of 0.1 ml/head into 10 male mice. 2 hrs after the injection, the compounds of the present inventions were orally administered at a dose of 20 mg/kg to respective mice in groups of 10. The compounds were administered once a day for seven days. The periods of time for which the infected mice lived were counted. The number of mice that survived the fungal infection was represented as % survival for each test group.

Row | Compound | Antifungal Activity (MIC) Aspergillus fumigatus (Aspergillus fumigatus) | Antifungal Activity (MIC) Aspergillus flavus (Aspergillus flavus) | Antifungal Activity (MIC) Candida albicans (Candida albicans [1]) | Antifungal Activity (MIC) Aspergillus terreus (Aspergillus terreus) | Antifungal Activity (MIC) Cryptococcus neoformans (Cryptococcus neoformans) | Antifungal Activity (MIC) Candida parapsilosis (Candida parapsilosis) | Antifungal Activity (MIC) Candida tropicalis (Candida tropicalis) | Antifungal Activity (MIC) Candida krusei (Candida krusei) | Antifungal Activity (MIC) Candida glabrata (Candida glabrata) | MIC (Aspergillus fumigatus) | MIC (Aspergillus flavus) | MIC (Candida albicans [1]) | MIC (Aspergillus terreus) | MIC (Cryptococcus neoformans) | MIC (Candida parapsilosis) | MIC (Candida tropicalis) | MIC (Candida krusei) | MIC (Candida glabrata) | toxic syndromes (acute toxicity) [2] | % survival (Candida albicans [3])
1 | C[C@@H](n1cc(-c2ccccc2)cn1)[C@](O)(Cn1cncn1)c1ccc(F)cc1F [Example 2] | 1 µg/mL | 4 µg/mL | ≦0.015 μg/ml | 4 µg/mL | 0.25 µg/mL | ≦0.015 μg/ml | 0.25 µg/mL | 0.5 µg/mL | 2 µg/mL |  |  |  |  |  |  |  |  |  |  | 
2 | C[C@@H](n1cc(-c2ccccc2F)cn1)[C@](O)(Cn1cncn1)c1ccc(F)cc1F [Example 3, (2R,3R)-3-(4-(2-fluorophenyl)1H-pyrazole-1-yl)-2-(2,4-difluorophenyl)-1-(1H-1,2,4-triazole-1-yl)butane-2-ol] |  |  |  |  |  |  |  |  |  | 0.5 µg/mL (≈ 1.21 µM) | 4 µg/mL (≈ 9.68 µM) | ≤ 0.015 µg/mL | 2 µg/mL (≈ 4.84 µM) | 0.125 µg/mL (≈ 0.302 µM) | 0.031 µg/mL (≈ 0.075 µM) | 1 µg/mL (≈ 2.42 µM) | 1 µg/mL (≈ 2.42 µM) | 2 µg/mL (≈ 4.84 µM) |  | 
3 | C[C@@H](n1cc(-c2ccc(Cl)cc2)cn1)[C@](O)(Cn1cncn1)c1ccc(F)cc1F [Example 14, (2R,3R)-3-(4-(4-chlorophenyl)-1H-pyrazole-1-yl)-2-(2,4-difluorophenyl)-1-(1H-1,2,4-triazole-1-yl)butane-2-ol] |  |  |  |  |  |  |  |  |  | 1 µg/mL (≈ 2.33 µM) | 4 µg/mL (≈ 9.31 µM) | ≤ 0.015 µg/mL | 2 µg/mL (≈ 4.65 µM) | 0.25 µg/mL (≈ 0.582 µM) | ≤ 0.015 µg/mL | 0.031 µg/mL (≈ 0.0721 µM) | 0.25 µg/mL (≈ 0.582 µM) | 2 µg/mL (≈ 4.65 µM) | not to suffer from any toxic syndromes | 
4 | C[C@@H](n1cc(-c2ccc([N+](=O)[O-])cc2)cn1)[C@](O)(Cn1cncn1)c1ccc(F)cc1F [Example 17, (2R,3R)-2-(2,4-difluorophenyl)-3-(4-(4-nitrophenyl)-1H-pyrazole-1-yl)-1-(1H-1,2,4-triazole-1-yl)butane-2-ol] |  |  |  |  |  |  |  |  |  | 2 µg/mL (≈ 4.54 µM) | 8 µg/mL (≈ 18.2 µM) | ≤ 0.015 µg/mL | 2 µg/mL (≈ 4.54 µM) | 0.031 µg/mL (≈ 0.0704 µM) | ≤ 0.015 µg/mL | 0.125 µg/mL (≈ 0.284 µM) | 0.25 µg/mL (≈ 0.568 µM) | 4 µg/mL (≈ 9.08 µM) | not to suffer from any toxic syndromes | 
5 | OC(Cn1cncn1)(Cn1cncn1)c1ccc(F)cc1F [Fluconazole, reference compound] |  |  |  |  |  |  |  |  |  | > 128 µg/mL | > 128 µg/mL | 4 µg/mL (≈ 13.1 µM) | > 128 µg/mL | 8 µg/mL (≈ 26.1 µM) | > 8 µg/mL | > 8 µg/mL | > 32 µg/mL | > 32 µg/mL |  | 10%

Now from value to molecule, other results behind:

Row | Antifungal Activity (MIC) Aspergillus fumigatus (Aspergillus fumigatus) | Antifungal Activity (MIC) Aspergillus flavus (Aspergillus flavus) | Antifungal Activity (MIC) Candida albicans (Candida albicans [1]) | Antifungal Activity (MIC) Aspergillus terreus (Aspergillus terreus) | Antifungal Activity (MIC) Cryptococcus neoformans (Cryptococcus neoformans) | Antifungal Activity (MIC) Candida parapsilosis (Candida parapsilosis) | Antifungal Activity (MIC) Candida tropicalis (Candida tropicalis) | Antifungal Activity (MIC) Candida krusei (Candida krusei) | Antifungal Activity (MIC) Candida glabrata (Candida glabrata) | MIC (Aspergillus fumigatus) | MIC (Aspergillus flavus) | MIC (Candida albicans [1]) | MIC (Aspergillus terreus) | MIC (Cryptococcus neoformans) | MIC (Candida parapsilosis) | MIC (Candida tropicalis) | MIC (Candida krusei) | MIC (Candida glabrata) | Compound | toxic syndromes (acute toxicity) [2] | % survival (Candida albicans [3])
6 |  |  |  |  |  |  |  |  |  | 1 µg/mL (≈ 2.42 µM) | 8 µg/mL (≈ 19.4 µM) | ≤ 0.015 µg/mL | 2 µg/mL (≈ 4.84 µM) | 0.031 µg/mL (≈ 0.075 µM) | ≤ 0.015 µg/mL | 0.25 µg/mL (≈ 0.605 µM) | 0.5 µg/mL (≈ 1.21 µM) | 2 µg/mL (≈ 4.84 µM) | C[C@@H](n1cc(-c2cccc(F)c2)cn1)[C@](O)(Cn1cncn1)c1ccc(F)cc1F [Example 8, (2R,3R)-3-(4-(3-fluorophenyl)-1H-pyrazole-1-yl)-2-(2,4-difluorophenyl)-1-(1H-1,2,4-triazole-1-yl)butane-2-ol] |  | 
7 |  |  |  |  |  |  |  |  |  | 2 µg/mL (≈ 4.65 µM) | 8 µg/mL (≈ 18.6 µM) | ≤ 0.015 µg/mL | 4 µg/mL (≈ 9.31 µM) | 0.25 µg/mL (≈ 0.582 µM) | ≤ 0.015 µg/mL | 0.063 µg/mL (≈ 0.147 µM) | 0.25 µg/mL (≈ 0.582 µM) | 1 µg/mL (≈ 2.33 µM) | C[C@@H](n1cc(-c2cccc(Cl)c2)cn1)[C@](O)(Cn1cncn1)c1ccc(F)cc1F [Example 9, (2R,3R)-3-(4-(3-chlorophenyl)-1H-pyrazole-1-yl)-2-(2,4-difluorophenyl)-1-(1H-1,2,4-triazole-1-yl)butane-2-ol] |  | 
8 |  |  |  |  |  |  |  |  |  | 1 µg/mL (≈ 2.11 µM) | 4 µg/mL (≈ 8.43 µM) | ≤ 0.015 µg/mL | 1 µg/mL (≈ 2.11 µM) | 0.125 µg/mL (≈ 0.264 µM) | ≤ 0.015 µg/mL | 0.125 µg/mL (≈ 0.264 µM) | 0.5 µg/mL (≈ 1.05 µM) | 2 µg/mL (≈ 4.22 µM) | C[C@@H](n1cc(-c2ccc(Br)cc2)cn1)[C@](O)(Cn1cncn1)c1ccc(F)cc1F [Example 15, (2R,3R)-3-(4-(4-bromophenyl)-1H-pyrazole-1-yl)-2-(2,4-difluorophenyl)-1-(1H-1,2,4-triazole-1-yl)butane-2-ol] |  | 
